In patent publication US20090076092A1, “METHOD FOR DISRUPTING REPRODUCTIVE PERFORMANCE OF ARTHROPODS” (priority 2006, published 2009):

System: Colorado potato beetle, (Leptinotarsa decemlineata Say)
Experiment: Test E: sub-lethal treatments on adult Colorado potato beetles
Format: in vivo
Conditions: for Total number of eggs: eggs collected daily for 20 days; for Mean number of viable larvae: larvae that developed to the pupal stage
Protocol: For evaluating the reproductive performance effects on Colorado potato beetle, (Leptinotarsa decemlineata Say), a colony of potato beetles was cultured in the laboratory on potato plants. The pupae were provided soil material to facilitate pupation. On emergence from the soil, the adult beetles were separated into different cages to avoid initial contact between the male and female beetles. Immediately afterwards, the sex of each adult beetle was determined, and each individual insect was placed in a Petri dish and fed with pieces of excised potato leaves, before being placed in a whole plant-containing test unit for treatment with a test compound solution. Each treatment consisted of twenty adult beetles of the same age (10 males and 10 females), and a pair consisting of a male and female was considered to be a replicate; thus there were 10 replicates per treatment.
Test solutions were prepared by diluting the test compound with acetone to provide the selected sub-lethal concentrations. Treatments included Compound 1 at 6.25 and 25 ppm as well as a control without test compound.
A 15 day-old potato plant with 2 to 3 leaves in a round peat pot was infested with 10 pairs of adult beetles, and the test solution was applied at a spray pressure of 310 kPa using a moving boom tunnel sprayer equipped with one Teejet nozzle, model 8003-EVS and calibrated at speed of 1 m/s and 345 kPa to deliver about 280 L/ha. A piece of filter paper was wrapped around the plant and covered the soil, and the spray nozzle was placed 40 cm above the top of potted plant unit so that the upper surface of the leaves was the only part of the plant contacted with the spray mixture.
After 24 h, one treated male and one treated female were transferred onto a covered container containing a potato plant to allow mating to occur. The test units were held in a growth chamber provided with 16 hours of light per day, 70% relative humidity and 20° C. Daily observations were made to record oviposition data. The eggs deposited by the females were collected daily and counted for 20 days. The collected eggs were then placed in a Petri dish lined with moistened paper filter to prevent dehydration, and maintained in an incubator at 20-24° C. with 16 hours of light per day, 70% relative humidity. The number of hatched eggs and the number of viable larvae that developed to the pupal stage were also recorded. The study was discontinued after the remaining unhatched eggs succumbed to fungal infections and high humidity.

## CNC(=O)c1cc(Cl)cc(C)c1NC(=O)c1cc(Br)nn1-c1ncccc1Cl [Compound 1, 3-bromo-N-[4-chloro-2-methyl-6-[(methylamino)carbonyl]phenyl]-1-(3-chloro-2-pyridinyl)-1H-pyrazole-5-carboxamide]
6.25 and 25 ppm
  fecundity and fertility data versus control: not significantly different from the control
6.25 ppm
  Mean number of hatched eggs: 188
  Total number of eggs: 271
  Mean number of viable larvae: 95
25 ppm
  Mean number of hatched eggs: 219
  Total number of eggs: 287
  Mean number of viable larvae: 117
